{"source": "patent US12577702B2", "about": "“Oligonucleotide encoded chemical libraries, related systems, devices, and methods for detecting, analyzing, quantifying, and testing biologics/genetics” (Plexium, Inc., priority 2020, dated 2026)", "molecular_target": "Cathepsin-D protease (Homo sapiens, UniProt P07339)", "sequence (P07339 65-412)": "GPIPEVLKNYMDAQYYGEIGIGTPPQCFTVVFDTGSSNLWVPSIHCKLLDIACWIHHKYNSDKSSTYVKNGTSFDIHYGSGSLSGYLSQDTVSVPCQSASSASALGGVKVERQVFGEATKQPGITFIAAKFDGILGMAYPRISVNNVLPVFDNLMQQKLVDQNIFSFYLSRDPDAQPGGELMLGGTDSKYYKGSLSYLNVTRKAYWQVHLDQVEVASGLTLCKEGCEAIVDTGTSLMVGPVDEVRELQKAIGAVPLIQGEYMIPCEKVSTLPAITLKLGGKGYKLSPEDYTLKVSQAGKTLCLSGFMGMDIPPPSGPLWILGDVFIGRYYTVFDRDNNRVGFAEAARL", "assay": "Protease inhibition assay in picowells with compound photo-released from beads", "assay_type": "biochemical", "conditions": "compound released from 10 μm TentaGel bead by UV (365 nm, 77 J/cm^2) to approximately 13 μM; incubated 30 min, 37° C.; λex=480 nm, λem=525 nm", "source_text": "Reagents were placed into wells at 4 degrees C. Ultraviolet light at 365 nm was used to cleave the fluorophore from the bead, thereby releasing the fluorophore and separating it from the quencher. […] This setup with bead-bound pepstatin-A and the aspartyl protease can serve as a positive control.\nThis bead population was introduced into picowells, then buffer exchanged into a protease inhibition assay, including Cathepsin-D protease and Peptide Q-Fluor substrate (λex=480 nm, λem=525 nm). Wells were encapsulated by air, and entire slide exposed to UV (365 nm, 77 J/cm^2), cleaving the photolabile linker, releasing the compound to reach approximately 13 μM. The flowcell was incubated (30 min, 37° C.).\nGreater fluorescence means that the enzyme is more catalytically active. […] Images were captured following UV release and Cathepsin-D assay incubation (λex=480 nm, λem=525 nm). Wells containing positive control beads could be identified spectrally by Cy5 fluorophore (λex=645 nm, λem=665 nm, orange false color)."}
{"smiles": "CC(C)[C@H](NC(=O)OCC1c2ccccc2-c2ccccc21)C(=O)O", "note": "[negative control beads, Fmoc-Valine]", "values": [{"measurement": "Cathepsin-D inhibition (fluorescence of Peptide Q-Fluor substrate in well)", "value": "no Cathepsin-D inhibition"}]}
